Experiments:
[1] = molecular target: Human PDE10A1 (Homo sapiens, UniProt Q9Y233); experiment: hPDE10A1 Enzyme Inhibition; format: biochemical; conditions: [3H]-cAMP substrate; read-out: hPDE10A1 IC50 Band
Procedure: hPDE10A1 Enzyme Activity: 50 μl samples of serially diluted Human PDE10A1 enzyme were incubated with 50 μl of [^3H]-cAMP for 20 minutes (at 37° C.). Reactions were carried out in Greiner 96 deep well 1 ml master-block. The enzyme was diluted in 20 mM Tris HCl pH7.4 and [^3H]-cAMP was diluted in 10 mM MgCl2, 40 mM Tris.HCl pH 7.4. The reaction was terminated by denaturing the PDE enzyme (at 70° C.) after which [^3H]-5′-AMP was converted to [^3H]-adenosine by adding 25 μl snake venom nucleotidase and incubating for 10 minutes (at 37° C.). Adenosine, being neutral, was separated from charged cAMP or AMP by the addition of 200 μl Dowex resin. Samples were shaken for 20 minutes then centrifuged for 3 minutes at 2,500 r.p.m. 50 μl of supernatant was removed and added to 200 μl of MicroScint-20 in white plates (Greiner 96-well Optiplate) and shaken for 30 minutes before reading on Perkin Elmer TopCount Scintillation Counter.
hPDE10A1 Enzyme Inhibition: To check inhibition profile 11 μl of serially diluted inhibitor was added to 50 μl of [^3H]-cAMP and 50 ul of diluted Human PDE10A1 and assay was carried out as in the enzyme activity assay. Data was analysed using Prism software (GraphPad Inc).

[2] = rats; cited from earlier work

Human PDE10A1, sequence (Q9Y233 1-779 isoform Q9Y233-1): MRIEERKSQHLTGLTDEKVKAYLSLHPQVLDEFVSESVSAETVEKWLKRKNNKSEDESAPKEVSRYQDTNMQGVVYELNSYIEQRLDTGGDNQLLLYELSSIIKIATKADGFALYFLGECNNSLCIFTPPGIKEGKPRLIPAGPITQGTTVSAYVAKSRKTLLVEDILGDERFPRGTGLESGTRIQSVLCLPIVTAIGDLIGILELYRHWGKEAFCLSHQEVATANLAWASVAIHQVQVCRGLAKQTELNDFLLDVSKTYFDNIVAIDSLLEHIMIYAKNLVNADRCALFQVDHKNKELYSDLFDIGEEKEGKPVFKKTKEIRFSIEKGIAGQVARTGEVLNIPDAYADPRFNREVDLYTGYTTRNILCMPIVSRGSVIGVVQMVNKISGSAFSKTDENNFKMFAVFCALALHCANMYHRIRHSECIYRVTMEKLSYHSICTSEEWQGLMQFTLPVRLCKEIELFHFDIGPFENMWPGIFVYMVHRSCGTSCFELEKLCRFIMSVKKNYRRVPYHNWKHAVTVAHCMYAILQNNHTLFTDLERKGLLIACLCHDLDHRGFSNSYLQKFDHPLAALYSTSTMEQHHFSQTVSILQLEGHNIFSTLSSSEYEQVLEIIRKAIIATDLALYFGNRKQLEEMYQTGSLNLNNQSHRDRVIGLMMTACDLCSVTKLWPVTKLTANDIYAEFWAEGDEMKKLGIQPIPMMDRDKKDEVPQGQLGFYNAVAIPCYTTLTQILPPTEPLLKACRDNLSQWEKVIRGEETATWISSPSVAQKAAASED

SMILES	IC50 [1] [nM]	other results
N#Cc1cccc(-c2ccncc2)c1-c1ccc(OCc2ccc3ccccc3n2)cc1 [Example 383, 6-Pyridin-4-yl-4′-(quinolin-2-ylmethoxy)-biphenyl-2-carbonitrile]	≤ 50	
N#Cc1cc(-c2ccccc2-c2ccc(OCc3ccc4ccccc4n3)cc2)ccc1Cl [Example 1855]	≤ 50	
COc1ccc(-c2ccccc2-c2ccc(OCc3ccc4ccccc4n3)cc2)cc1 [Example 330]	> 50	
Fc1ccc(-c2ccc(OCc3ccc4ccccc4n3)cc2)c(-c2ccncc2)c1 [Example 1856, 2-(4′-Fluoro-2′-pyridin-4-yl-biphenyl-4-yloxymethyl)-quinoline]	≤ 50	
Clc1ccc(-c2ccc(OCc3ccc4ccccc4n3)cc2)c(-c2ccncc2)c1 [Example 1876, 2-((4′-Chloro-2′-(pyridin-4-yl)biphenyl-4-yloxy)methyl)quinoline]	> 50	
Clc1ccc(-c2ccccc2-c2ccc(OCc3ccc4ccccc4n3)cc2)cc1 [Example 180]	> 50	
O=Cc1cccc(-c2ccncc2)c1-c1ccc(OCc2ccc3ccccc3n2)cc1 [Example 1854, 6-(Pyridin-4-yl)-4′-(quinolin-2-ylmethoxy)biphenyl-2-carbaldehyde]	≤ 50	
COc1ccc(Cc2nccc3cc(OC)c(OC)cc23)cc1OC [papaverine]		apomorphine induced stereotypies [2]: reduces; haloperidol induced catalepsy [2]: increases; rat brain dopamine levels [2]: reduces
c1ccc(N2CCCC2)c(-c2ccc(OCc3ccc4ccccc4n3)cc2)c1 [Example 1868, 2-((2′-(pyrrolidin-1-yl)biphenyl-4-yloxy)methyl)quinoline]	> 50	

Continued, in another order:

IC50 [1] [nM]	SMILES	other results
≤ 50	Cc1cccc(-c2ccncc2)c1-c1ccc(OCc2ccc3ccccc3n2)cc1 [Example 387, 2-(6′-Methyl-2′-pyridin-4-yl-biphenyl-4-yloxymethyl)-quinoline]	
> 50	Clc1cccc(-c2ccc(OCc3ccc4ccccc4n3)cc2)c1-c1ccncc1 [Example 1872, 2-((3′-Chloro-2′-(pyridin-4-yl)biphenyl-4-yloxy)methyl)quinoline]	
≤ 50	Cc1cc(-c2ccccc2-c2ccc(OCc3ccc4ccccc4n3)cc2)ccn1 [Example 1859, 2-((2′-(2-methylpyridin-4-yl)biphenyl-4-yloxy)methyl)quinoline]	
≤ 50	COc1cccc(-c2ccncc2)c1-c1ccc(OCc2ccc3ccccc3n2)cc1 [Example 385, 2-((2′-Methoxy-6′-(pyridin-4-yl)biphenyl-4-yloxy)methyl)quinoline]	
> 50	c1ccc(N2CCOCC2)c(-c2ccc(OCc3ccc4ccccc4n3)cc2)c1 [Example 445, 4-(4′-(quinolin-2-ylmethoxy)biphenyl-2-yl)morpholine]	
> 50	N#Cc1ccc(-c2ccc(OCc3ccc4ccccc4n3)cc2)c(-c2ccncc2)c1 [Example 1885, 2-(Pyridin-4-yl)-4′-(quinolin-2-ylmethoxy)biphenyl-4-carbonitrile]	melting point: 190 to 193 °C
> 50	Nc1cccc(-c2ccncc2)c1-c1ccc(OCc2ccc3ccccc3n2)cc1 [Example 1881, 6-Pyridin-4-yl-4′-(quinolin-2-ylmethoxy)-biphenyl-2-ylamine]	

From patent US20110224204A1, “DI-SUBSTITUTED PHENYL COMPOUNDS” (priority 2008, published 2011)
